Columns and labels:
Type in all cases: physicochemical
[1] = Comparative study of oxidation reduction potentials (ORP) and halogen residuals in cooling tower water
Experimental: The oxidants studied consisted of WELLGUARD 909 biocide, STABREX biocide (stabilized NaBr+NaOCl), bleach (NaOCl), and activated sodium bromide (NaOCl and NaBr).
Stock solutions of the biocides were prepared at 1000 ppm halogen residual concentration (as Cl2) in brown glass bottles using deionized water for dilution. Solution activities were confirmed using the DPD method and a Hach Co. (Loveland, Colo.) DR/2000 spectrophotometer.
Aliquots of the stock solutions above were added to 1000 mL of cooling tower water that had been pulled from a cooling tower. A 1000 mL beaker was charged with 1000 mL of cooling tower water and stirred while measuring ORP with a Brinkmann Metrohm 716 DMS Titrino automatic titrator. It took about 45 minutes for the sample to equilibrate—the ORP reading would gradually decline to a reading of about 300 mV. The sample was deemed to have equilibrated when the change in the ORP reading was less than or equal to 1 unit/minute. At this point, 0.5 g of stock solution (nominal halogen residual=0.5 ppm) was added and the mixture allowed to equilibrate once again. A sample was pulled to determine free and total halogen residuals and then 0.5 g additional stock solution was added and the process repeated. The following aliquots were added during the experiment: 0.5 g, 1.0 g, 2.0 g, 3.0 g, 4.0 g, 6.0 g, 8.0 g, 10.0 g.

[2] = Reversion of AMP to orthophosphate by oxidizing biocides; settings: for Phosphate (orthophosphate from AMP): oxidant 10 ppm as Cl2, pH 9.1, 23° C.
Experimental: (§1) The oxidants studied consisted of WELLGUARD 909 biocide, bleach (NaOCl), and activated sodium bromide (NaOCl and NaBr). The WELLGUARD 909 biocide and bleach were added directly. Activated sodium bromide was prepared in situ by introducing 20 ppm bromide ion to the stock solution followed by addition of bleach. The phosphonates used in this work consisted of AMP (aminomethylene phosphonic acid), HEDP (hydroxyethylidene diphosphonic acid), and PBTC (phosphonobutanetricarboxylic acid). These materials were commercial samples (Mayoquest 1320, 1500, and 2100, respectively) obtained from Callaway Chemical Co. (Smyrna, Ga.).
(§2) Solutions consisting of 5 ppm scale inhibitor (as active phosphonate) in the presence of 10 ppm oxidant (as Cl2) were prepared as follows. To 900 mL deionized water were added appropriate stock solutions containing phosphonate, alkalinity (NaHCO3), and calcium hardness (CaCl2). The pH was adjusted to 9.1 with 5% aq. NaOH and diluted up to 1 L in a dark amber bottle. A dose of oxidant was added to achieve a residual of 10 ppm. The solutions were then periodically monitored for phosphonate reversion by determining the reversion to orthophosphate (Hach method 490). The oxidant residual was also periodically monitored using the DPD method (Hach method 80). All of this work was performed at room temperature (23° C.). The initial active phosphonate content was confirmed by conversion to orthophosphate via UV/persulfate oxidation followed by a conventional phosphate analysis (Hach method 501). A conversion factor was applied to the phosphate measurement to determine the initial amount of active phosphonate present as follows: AMP, 1.05; HEDP, 1.085; PBTC, 2.85.

[3] = Reversion of HEDP to orthophosphate by oxidizing biocides; settings: for Phosphate (orthophosphate from HEDP): oxidant 10 ppm as Cl2, pH 9.1, 23° C.
Experimental: as §1, §2

[4] = Reversion of PBTC to orthophosphate by oxidizing biocides; settings: for Phosphate (orthophosphate from PBTC): oxidant 10 ppm as Cl2, pH 9.1, 23° C.
Experimental: as §1, §2

[5] = nominal free/total ppm (as Cl2): STABREX 0.49/0.51, WELLGUARD 909 0.42/0.52, Bleach 0.50, Activated NaBr 0.48/0.52
[6] = nominal free/total ppm: STABREX 0.98/1.04, WELLGUARD 909 0.85/1.04, Bleach 1.00, Activated NaBr 0.97/1.05
[7] = nominal free/total ppm: STABREX 2.00/2.11, WELLGUARD 909 1.72/2.12, Bleach 2.04, Activated NaBr 1.97/2.14
[8] = nominal free/total ppm: STABREX 3.04/3.20, WELLGUARD 909 2.62/3.22, Bleach 3.09, Activated NaBr 2.99/3.25
[9] = nominal free/total ppm: STABREX 4.09/4.32, WELLGUARD 909 3.53/4.20, Bleach 4.17, Activated NaBr 4.03/4.39
[10] = nominal free/total ppm: STABREX 6.26/6.60, WELLGUARD 909 5.40/6.63, Bleach 6.37, Activated NaBr 6.17/6.71
[11] = nominal free/total ppm: STABREX 8.47/8.94, WELLGUARD 909 7.31/8.98, Bleach 8.63, Activated NaBr 8.35/9.08
[12] = nominal free/total ppm: STABREX 10.74/11.33, WELLGUARD 909 9.26/11.38, Bleach 10.93, Activated NaBr 10.58/11.51

SMILES: [Na+].[O-]Cl [Bleach, NaOCl]
- loss in biocide residual ([1]; conditions of Table 3): significant loss of residual during initial stages of biocide addition
- Actual Residual, ppm Free [1, 5]: 0.13 ppm
- Actual Residual, ppm Total [1, 5]: 0.34 ppm
- ORP Reading, mV [1, 5]: 500 mV
- Actual Residual, ppm Free [1, 6]: 0.29 ppm
- Actual Residual, ppm Total [1, 6]: 0.48 ppm
- ORP Reading, mV [1, 6]: 620 mV
- Actual Residual, ppm Free [1, 7]: 1.12 ppm
- Actual Residual, ppm Total [1, 7]: 1.29 ppm
- ORP Reading, mV [1, 7]: 659 mV
- Actual Residual, ppm Free [1, 8]: 1.88 ppm
- Actual Residual, ppm Total [1, 8]: 2.08 ppm
- ORP Reading, mV [1, 8]: 672 mV
- Actual Residual, ppm Free [1, 9]: 2.98 ppm
- Actual Residual, ppm Total [1, 9]: 3.43 ppm
- ORP Reading, mV [1, 9]: 678 mV
- Actual Residual, ppm Free [1, 10]: 5.24 ppm
- Actual Residual, ppm Total [1, 10]: 5.68 ppm
- ORP Reading, mV [1, 10]: 683 mV
- Actual Residual, ppm Free [1, 11]: 7.68 ppm
- Actual Residual, ppm Total [1, 11]: 8.16 ppm
- ORP Reading, mV [1, 11]: 685 mV
- Actual Residual, ppm Free [1, 12]: 10.08 ppm
- Actual Residual, ppm Total [1, 12]: 10.78 ppm
- ORP Reading, mV [1, 12]: 689 mV
- Cl2 (oxidant residual) ([2]; AMP 5 ppm, initial oxidant 10 ppm as Cl2, pH 9.1, 23° C., 460 minutes): 9.4 ppm
- Phosphate (orthophosphate from AMP) ([2]; AMP 5 ppm, 20 minutes): 0.35 ppm
- Phosphate (orthophosphate from AMP) ([2]; AMP 5 ppm, 40 minutes): 0.7 ppm
- Phosphate (orthophosphate from AMP) ([2]; AMP 5 ppm, 70 minutes): 0.53 ppm
- Phosphate (orthophosphate from AMP) ([2]; AMP 5 ppm, 100 minutes): 0.75 ppm
- Phosphate (orthophosphate from AMP) ([2]; AMP 5 ppm, 130 minutes): 0.8 ppm
- Phosphate (orthophosphate from AMP) ([2]; AMP 5 ppm, 190 minutes): 0.77 ppm
- Phosphate (orthophosphate from AMP) ([2]; AMP 5 ppm, 220 minutes): 0.59 ppm
- Phosphate (orthophosphate from AMP) ([2]; AMP 5 ppm, 250 minutes): 0.64 ppm
- Phosphate (orthophosphate from AMP) ([2]; AMP 5 ppm, 280 minutes): 0.83 ppm
- Phosphate (orthophosphate from AMP) ([2]; AMP 5 ppm, 310 minutes): 0.82 ppm
- Phosphate (orthophosphate from AMP) ([2]; AMP 5 ppm, 340 minutes): 0.8 ppm
- Phosphate (orthophosphate from AMP) ([2]; AMP 5 ppm, 370 minutes): 0.81 ppm
- Phosphate (orthophosphate from AMP) ([2]; AMP 5 ppm, 400 minutes): 0.79 ppm
- Phosphate (orthophosphate from AMP) ([2]; AMP 5 ppm, 520 minutes): 0.97 ppm
- Phosphate (orthophosphate from AMP) ([2]; AMP 5 ppm, 1360 minutes): 0.91 ppm
- averaged amounts of phosphonate reversion ([2]; AMP, Table 4 averages): 18.7%
- Phosphate, average ([2]; AMP, average 100-1360 minutes, maximum liberable phosphate: WELLGUARD 909 4.58, Activated NaBr 4.18, Bleach 4.22 ppm): 0.79 ppm
- Cl2 (oxidant residual) ([3]; HEDP 5 ppm, initial oxidant 10 ppm as Cl2, pH 9.1, 23° C., 400 minutes): 10.6 ppm
- Phosphate (orthophosphate from HEDP) ([3]; HEDP 5 ppm, 20 minutes): 0 ppm
- Phosphate (orthophosphate from HEDP) ([3]; HEDP 5 ppm, 40 minutes): 0 ppm
- Phosphate (orthophosphate from HEDP) ([3]; HEDP 5 ppm, 70 minutes): 0.2 ppm
- Phosphate (orthophosphate from HEDP) ([3]; HEDP 5 ppm, 100 minutes): 0.25 ppm
- Phosphate (orthophosphate from HEDP) ([3]; HEDP 5 ppm, 130 minutes): 0.31 ppm
- Phosphate (orthophosphate from HEDP) ([3]; HEDP 5 ppm, 190 minutes): 0.61 ppm
- Phosphate (orthophosphate from HEDP) ([3]; HEDP 5 ppm, 220 minutes): 0.65 ppm
- Phosphate (orthophosphate from HEDP) ([3]; HEDP 5 ppm, 250 minutes): 0.39 ppm
- Phosphate (orthophosphate from HEDP) ([3]; HEDP 5 ppm, 280 minutes): 0.41 ppm
- Phosphate (orthophosphate from HEDP) ([3]; HEDP 5 ppm, 310 minutes): 0.58 ppm
- Phosphate (orthophosphate from HEDP) ([3]; HEDP 5 ppm, 340 minutes): 0.65 ppm
- Phosphate (orthophosphate from HEDP) ([3]; HEDP 5 ppm, 370 minutes): 0.84 ppm
- Phosphate (orthophosphate from HEDP) ([3]; HEDP 5 ppm, 400 minutes): 0.65 ppm
- Phosphate (orthophosphate from HEDP) ([3]; HEDP 5 ppm, 460 minutes): 0.95 ppm
- Phosphate (orthophosphate from HEDP) ([3]; HEDP 5 ppm, 520 minutes, maximum liberable phosphate: WELLGUARD 909 4.20, Activated NaBr 4.40, Bleach 4.80 ppm): 0.94 ppm
- relative amounts of reversion ([3]; HEDP, after 520 minutes): 19.6%
- residual oxidant (as Cl2) ([4]; PBTC 5 ppm, initial oxidant 10 ppm as Cl2, pH 9.1, 23° C., 390 minutes (second 390 line)): 9.5 ppm
- Phosphate (orthophosphate from PBTC) ([4]; PBTC 5 ppm, 30 minutes): 0 ppm
- Phosphate (orthophosphate from PBTC) ([4]; PBTC 5 ppm, 60 minutes): 0 ppm
- Phosphate (orthophosphate from PBTC) ([4]; PBTC 5 ppm, 90 minutes): 0 ppm
- Phosphate (orthophosphate from PBTC) ([4]; PBTC 5 ppm, 120 minutes): 0 ppm
- Phosphate (orthophosphate from PBTC) ([4]; PBTC 5 ppm, 150 minutes): 0 ppm
- Phosphate (orthophosphate from PBTC) ([4]; PBTC 5 ppm, 180 minutes): 0 ppm
- Phosphate (orthophosphate from PBTC) ([4]; PBTC 5 ppm, 210 minutes): 0.12 ppm
- Phosphate (orthophosphate from PBTC) ([4]; PBTC 5 ppm, 270 minutes): 0.16 ppm
- Phosphate (orthophosphate from PBTC) ([4]; PBTC 5 ppm, 330 minutes): 0.05 ppm
- Phosphate (orthophosphate from PBTC) ([4]; PBTC 5 ppm, 360 minutes): 0.02 ppm
- Phosphate (orthophosphate from PBTC) ([4]; PBTC 5 ppm, 390 minutes (first 390 line)): 0.02 ppm
- Phosphate (orthophosphate from PBTC) ([4]; PBTC 5 ppm, 1360 minutes): 0.08 ppm
- average amounts of phosphonate reversion ([4]; PBTC, after 3½ hours contact and beyond): 5.2%
- Phosphate, average ([4]; PBTC, average 210-1360 minutes, maximum liberable phosphate: WELLGUARD 909 1.72, Activated NaBr 1.82, Bleach 1.44 ppm): 0.075 ppm
